Assay results published in patent publication US20260263429A1, “INHIBITORS OF CA 2+/CALMODULIN-DEPENDENT PROTEIN KINASE II (CAMKII) THAT DO NOT INHIBIT LONG-TERM POTENTIATION (LTP) INDUCTION AND THERAPEUTIC USES THEREOF” (The Regents of the University of Colorado, A Body Corporate, priority 2023, published 2026).

Key:
[1] = system: paCaMKII F89G movement to synapses and spine growth; assay: Photoactivation of paCaMKII F89G in hippocampal neurons (structural LTP); format: cell-based; details: NM-PP1 10 μM
Text: In this Example, two sets of pharmacogenetic tools were used in combination with the photoactivable paCaMKII to test whether structural CaMKII functions are not only the necessary but also the sufficient CaMKII functions in LTP. Specifically, in one exemplary method, hippocampal neurons were examined for sLTP (e.g., the LTP-associated growth of dendritic spines) in response to direct photoactivation of paCaMKII without any other stimulation that could trigger additional signaling pathways. […] In both cases, suppressing enzymatic CaMKII activity while allowing or enhancing GluN2B binding enabled induction of structural LTP.
paCaMKII stimulation in hippocampal neurons. […] Neurons were then imaged 15 minutes after stimulation and assessed for CaMKII synaptic enrichment and dendritic spine growth.
Image analysis of hippocampal neurons. […] 2D maximum intensity projection images were then generated and analyzed using a custom-build program in ImageJ. The program utilizes combinatorial thresholding to mask regions of the cell that contain high intensity PSD-95 puncta (the post-synaptic side of excitatory synapses in dendritic spines) and regions of the dendritic shaft that contain no fluorescence intensity of PSD-95. […] Spine growth was assessed by measuring the changes in mCherry cell fill fluorescence intensity within dendritic spine ROIs (F/F0).

pT286 CaMKII = assay: CaMKII T286 phosphorylation in hippocampal cultures after chemical LTP stimulation; format: cell-based
Method: In this Example, other possibilities of AS283 action were tested. If AS283 blocks pT286 but not LTP because it also circumvents the need of pT286 for LTP, then AS283 should not only fail to block LTP in WT mice (as illustrated in FIGS. 3A-3B) but should also restore the capacity for LTP induction in T286A mutant mice. […] Specifically, in an exemplary method, the addition of AS283 (10 μM) enabled LTP in slices from the T286A mutant mice (FIGS. 3C-3D).
Immunoblot analysis. Protein concentration was determined using the Pierce BCA protein assay (Thermo-Fisher). Before undergoing SDS-PAGE, samples were boiled in Laemmli sample buffer for 5 min at 95° C. Proteins were separated in a resolving phase polymerized from 10% acrylamide, then transferred to a polyvinylidene difluoride membrane at 24 V for 1-2 h at 4° C. […] Blots were developed using chemiluminescence (Super Signal West Femto, Thermo-Fisher) imaged using the Chemi-Imager 4400 system (Alpha-Innotech), or imaged directly by fluorescence (Cytiva CyDye 700 goat anti-mouse and CyDye 800 goat anti-rabbit secondary antibodies.) using an OdysseyFc imaging instrument. All immunoblots were analyzed by densitometry (ImageJ). […]

KDR(h) = KDR(h) (Homo sapiens, UniProt P35968); assay: Kinase panel, residual kinase activity at 1 μM inhibitor; format: biochemical
Method: (§1) In this table, residual kinase activity in the presence of 1 μM of each inhibitor is illustrated as a percentage of maximal activity.

Pim-1(h) = Pim-1(h) (Homo sapiens, UniProt P11309); assay: as above; format: biochemical
Method: as §1

PAK2(h) = PAK2(h) (Homo sapiens, UniProt Q13177); assay: as above; format: biochemical
Method: as §1

MAPK2(h) = MAPK2(h) (Homo sapiens, UniProt P28482); assay: as above; format: biochemical
Method: as §1

JAK2(h) = JAK2(h) (Homo sapiens, UniProt O60674); assay: as above; format: biochemical
Method: as §1

CaMKIIβ(h) = CaMKIIβ(h) (Homo sapiens, UniProt Q13554); assay: as above; format: biochemical
Method: as §1

CaMKIIγ(h) = CaMKIIγ(h) (Homo sapiens, UniProt Q13555); assay: as above; format: biochemical
Method: as §1

Arg(h) = Arg(h) (Homo sapiens, UniProt P42684); assay: as above; format: biochemical
Method: as §1

Ret(h) = Ret(h) (Homo sapiens, UniProt P07949); assay: as above; format: biochemical
Method: as §1

Flt3(h) = Flt3(h) (Homo sapiens, UniProt P36888); assay: as above; format: biochemical
Method: as §1

PDGFRβ(h) = PDGFRβ(h) (Homo sapiens, UniProt P09619); assay: as above; format: biochemical
Method: as §1

IGF-1R(h) = IGF-1R(h) (Homo sapiens, UniProt P08069); assay: as above; format: biochemical
Method: as §1

mTOR(h) = mTOR(h) (Homo sapiens, UniProt P42345); assay: as above; format: biochemical
Method: as §1

Chain of JAK2(h) (O60674 whole entry): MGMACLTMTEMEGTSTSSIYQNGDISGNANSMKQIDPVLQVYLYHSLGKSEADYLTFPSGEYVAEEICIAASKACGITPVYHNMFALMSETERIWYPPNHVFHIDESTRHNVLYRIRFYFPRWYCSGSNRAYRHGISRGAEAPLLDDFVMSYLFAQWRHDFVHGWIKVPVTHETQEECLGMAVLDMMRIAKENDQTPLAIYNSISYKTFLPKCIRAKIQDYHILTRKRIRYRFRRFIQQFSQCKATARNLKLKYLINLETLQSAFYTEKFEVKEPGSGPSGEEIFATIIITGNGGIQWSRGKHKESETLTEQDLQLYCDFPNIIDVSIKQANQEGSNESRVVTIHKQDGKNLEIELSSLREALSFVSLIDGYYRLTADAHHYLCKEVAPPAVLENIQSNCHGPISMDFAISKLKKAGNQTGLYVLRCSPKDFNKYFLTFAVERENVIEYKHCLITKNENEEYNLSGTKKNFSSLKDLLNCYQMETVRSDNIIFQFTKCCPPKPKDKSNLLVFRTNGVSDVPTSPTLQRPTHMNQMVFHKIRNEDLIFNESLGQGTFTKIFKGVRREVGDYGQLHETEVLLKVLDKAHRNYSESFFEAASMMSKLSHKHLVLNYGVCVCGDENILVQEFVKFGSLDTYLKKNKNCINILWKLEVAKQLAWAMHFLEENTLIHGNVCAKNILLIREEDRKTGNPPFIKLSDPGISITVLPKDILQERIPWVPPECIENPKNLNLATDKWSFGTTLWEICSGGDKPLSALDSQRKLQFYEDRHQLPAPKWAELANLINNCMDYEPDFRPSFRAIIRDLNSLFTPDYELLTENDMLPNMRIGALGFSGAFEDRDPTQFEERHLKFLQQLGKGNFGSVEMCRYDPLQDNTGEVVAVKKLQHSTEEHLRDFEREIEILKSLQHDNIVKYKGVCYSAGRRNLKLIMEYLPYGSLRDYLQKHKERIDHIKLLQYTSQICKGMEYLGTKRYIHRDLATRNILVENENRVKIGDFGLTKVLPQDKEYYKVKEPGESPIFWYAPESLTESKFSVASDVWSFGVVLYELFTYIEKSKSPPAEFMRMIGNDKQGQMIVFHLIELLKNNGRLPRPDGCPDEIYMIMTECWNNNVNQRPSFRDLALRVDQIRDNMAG
Chain of Arg(h) (P42684 whole entry): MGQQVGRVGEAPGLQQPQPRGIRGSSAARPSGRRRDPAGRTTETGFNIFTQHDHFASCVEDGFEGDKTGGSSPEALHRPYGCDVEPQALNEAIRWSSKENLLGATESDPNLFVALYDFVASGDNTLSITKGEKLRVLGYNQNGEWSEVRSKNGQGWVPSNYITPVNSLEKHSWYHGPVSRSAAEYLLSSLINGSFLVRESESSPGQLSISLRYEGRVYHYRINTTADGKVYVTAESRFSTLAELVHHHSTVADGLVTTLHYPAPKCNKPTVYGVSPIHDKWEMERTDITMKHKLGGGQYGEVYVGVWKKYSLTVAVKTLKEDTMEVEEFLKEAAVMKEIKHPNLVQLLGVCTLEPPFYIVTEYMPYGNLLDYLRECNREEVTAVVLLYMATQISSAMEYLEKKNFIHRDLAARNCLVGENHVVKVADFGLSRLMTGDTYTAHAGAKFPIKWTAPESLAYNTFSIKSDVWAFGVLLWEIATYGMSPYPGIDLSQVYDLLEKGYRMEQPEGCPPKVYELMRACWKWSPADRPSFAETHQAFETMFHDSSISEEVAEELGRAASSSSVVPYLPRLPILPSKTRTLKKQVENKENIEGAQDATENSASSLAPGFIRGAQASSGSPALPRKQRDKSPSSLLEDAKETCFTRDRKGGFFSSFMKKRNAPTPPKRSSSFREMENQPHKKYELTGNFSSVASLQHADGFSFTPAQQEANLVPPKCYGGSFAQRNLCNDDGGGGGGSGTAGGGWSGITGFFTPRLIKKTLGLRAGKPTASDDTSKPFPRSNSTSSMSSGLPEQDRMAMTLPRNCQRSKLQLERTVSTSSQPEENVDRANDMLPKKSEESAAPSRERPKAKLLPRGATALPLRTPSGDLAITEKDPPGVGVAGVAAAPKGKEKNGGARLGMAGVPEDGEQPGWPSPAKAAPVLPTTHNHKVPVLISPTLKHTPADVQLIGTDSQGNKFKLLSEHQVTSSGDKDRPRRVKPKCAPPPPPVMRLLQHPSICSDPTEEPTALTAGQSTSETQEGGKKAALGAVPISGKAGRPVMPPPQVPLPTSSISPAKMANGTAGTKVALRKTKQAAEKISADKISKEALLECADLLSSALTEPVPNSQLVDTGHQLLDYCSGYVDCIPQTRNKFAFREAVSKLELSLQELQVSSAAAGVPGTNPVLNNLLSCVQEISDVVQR
Chain of IGF-1R(h) (P08069 31-1367): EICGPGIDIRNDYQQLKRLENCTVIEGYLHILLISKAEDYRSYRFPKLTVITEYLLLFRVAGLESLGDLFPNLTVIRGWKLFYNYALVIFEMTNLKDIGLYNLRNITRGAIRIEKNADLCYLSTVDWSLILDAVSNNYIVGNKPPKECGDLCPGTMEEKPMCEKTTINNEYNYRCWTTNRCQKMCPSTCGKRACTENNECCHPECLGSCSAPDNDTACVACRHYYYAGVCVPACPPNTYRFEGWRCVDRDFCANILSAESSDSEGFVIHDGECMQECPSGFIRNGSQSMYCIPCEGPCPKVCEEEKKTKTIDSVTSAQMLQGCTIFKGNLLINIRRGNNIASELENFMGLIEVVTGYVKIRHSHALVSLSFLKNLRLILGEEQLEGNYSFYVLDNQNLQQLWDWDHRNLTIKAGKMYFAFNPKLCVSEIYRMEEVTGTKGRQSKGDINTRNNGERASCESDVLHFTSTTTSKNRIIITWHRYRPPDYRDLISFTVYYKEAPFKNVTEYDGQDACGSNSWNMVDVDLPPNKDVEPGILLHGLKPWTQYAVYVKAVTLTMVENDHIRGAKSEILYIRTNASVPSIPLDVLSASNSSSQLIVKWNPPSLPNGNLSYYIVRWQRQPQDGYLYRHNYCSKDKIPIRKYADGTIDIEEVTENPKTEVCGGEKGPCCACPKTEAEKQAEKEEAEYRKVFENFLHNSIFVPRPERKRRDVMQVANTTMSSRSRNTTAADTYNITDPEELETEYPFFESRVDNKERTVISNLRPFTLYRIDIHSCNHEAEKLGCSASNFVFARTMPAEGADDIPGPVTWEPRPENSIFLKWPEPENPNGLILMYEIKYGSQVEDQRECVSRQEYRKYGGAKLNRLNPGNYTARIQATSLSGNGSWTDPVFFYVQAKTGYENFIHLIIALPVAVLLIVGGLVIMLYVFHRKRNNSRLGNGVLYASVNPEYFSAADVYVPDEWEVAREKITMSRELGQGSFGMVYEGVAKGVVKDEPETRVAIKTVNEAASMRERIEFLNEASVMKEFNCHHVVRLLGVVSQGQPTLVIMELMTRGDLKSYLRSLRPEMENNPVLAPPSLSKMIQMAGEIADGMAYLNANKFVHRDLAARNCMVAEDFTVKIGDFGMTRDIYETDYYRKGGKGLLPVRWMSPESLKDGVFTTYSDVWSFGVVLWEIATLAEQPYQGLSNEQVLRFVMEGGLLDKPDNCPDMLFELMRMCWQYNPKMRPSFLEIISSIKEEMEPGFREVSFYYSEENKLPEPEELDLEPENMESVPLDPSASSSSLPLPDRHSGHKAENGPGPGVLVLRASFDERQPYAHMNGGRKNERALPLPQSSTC
Chain of KDR(h) (P35968 20-1356): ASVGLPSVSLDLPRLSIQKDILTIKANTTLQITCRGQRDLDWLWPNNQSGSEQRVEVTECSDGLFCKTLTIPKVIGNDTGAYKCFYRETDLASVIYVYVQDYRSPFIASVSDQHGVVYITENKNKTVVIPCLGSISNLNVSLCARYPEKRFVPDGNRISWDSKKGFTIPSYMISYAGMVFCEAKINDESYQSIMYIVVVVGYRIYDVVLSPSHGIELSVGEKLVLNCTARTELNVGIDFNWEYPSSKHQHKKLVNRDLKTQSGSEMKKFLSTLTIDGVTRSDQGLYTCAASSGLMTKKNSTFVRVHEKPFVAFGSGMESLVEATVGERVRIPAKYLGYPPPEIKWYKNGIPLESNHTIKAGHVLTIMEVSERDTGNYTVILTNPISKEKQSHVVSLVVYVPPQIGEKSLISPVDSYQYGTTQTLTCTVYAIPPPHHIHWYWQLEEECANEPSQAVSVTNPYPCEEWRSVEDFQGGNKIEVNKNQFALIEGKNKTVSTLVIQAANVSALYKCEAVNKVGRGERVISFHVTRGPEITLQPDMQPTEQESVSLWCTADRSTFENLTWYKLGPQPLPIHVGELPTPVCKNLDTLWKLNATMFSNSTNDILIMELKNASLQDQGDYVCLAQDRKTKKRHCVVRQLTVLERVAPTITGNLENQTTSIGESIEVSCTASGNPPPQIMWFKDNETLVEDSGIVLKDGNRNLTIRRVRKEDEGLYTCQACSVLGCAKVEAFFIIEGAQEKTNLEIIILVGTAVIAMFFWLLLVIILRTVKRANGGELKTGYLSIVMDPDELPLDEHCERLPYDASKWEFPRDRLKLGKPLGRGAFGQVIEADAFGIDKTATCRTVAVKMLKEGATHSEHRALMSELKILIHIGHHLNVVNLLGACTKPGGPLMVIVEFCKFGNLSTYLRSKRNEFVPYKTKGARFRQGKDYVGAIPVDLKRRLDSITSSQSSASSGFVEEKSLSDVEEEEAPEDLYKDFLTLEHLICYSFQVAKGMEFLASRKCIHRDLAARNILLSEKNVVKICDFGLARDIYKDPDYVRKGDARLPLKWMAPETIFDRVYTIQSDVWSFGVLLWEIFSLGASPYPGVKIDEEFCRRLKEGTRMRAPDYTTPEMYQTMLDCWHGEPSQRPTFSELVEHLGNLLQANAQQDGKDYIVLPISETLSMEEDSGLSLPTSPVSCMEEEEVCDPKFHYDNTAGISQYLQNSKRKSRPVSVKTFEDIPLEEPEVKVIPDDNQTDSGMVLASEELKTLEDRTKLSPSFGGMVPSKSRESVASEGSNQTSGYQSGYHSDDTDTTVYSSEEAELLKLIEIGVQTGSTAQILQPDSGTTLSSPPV

Compound	CaMKII movement after photoactivation of paCaMKII F89G [1]	increase in pT286 levels after chemical LTP stimulation (pT286 CaMKII)	residual kinase activity, KDR(h) (KDR(h))	residual kinase activity, Pim-1(h) (Pim-1(h))	residual kinase activity, PAK2(h) (PAK2(h))	residual kinase activity, MAPK2(h) (MAPK2(h))	residual kinase activity, JAK2(h) (JAK2(h))	residual kinase activity, CaMKIIβ(h) (CaMKIIβ(h))	residual kinase activity, CaMKIIγ(h) (CaMKIIγ(h))	residual kinase activity, Arg(h) (Arg(h))	residual kinase activity, Ret(h) (Ret(h))	residual kinase activity, Flt3(h) (Flt3(h))	residual kinase activity, PDGFRβ(h) (PDGFRβ(h))	residual kinase activity, IGF-1R(h) (IGF-1R(h))	residual kinase activity, mTOR(h) (mTOR(h))
CC(C)(C)n1nc(Cc2cccc3ccccc23)c2c(N)ncnc21 [NM-PP1]	enabled similar movement	–	–	–	–	–	–	–	–	–	–	–	–	–	–
NCCNc1cccc(-c2ccnc3[nH]c4ccccc4c23)c1 [AS283]	–	specifically blocked increase in pT286 levels	15 percentage of maximal activity	50 percentage of maximal activity	76 percentage of maximal activity	97 percentage of maximal activity	121 percentage of maximal activity	5 percentage of maximal activity	2 percentage of maximal activity	96 percentage of maximal activity	44 percentage of maximal activity	3 percentage of maximal activity	111 percentage of maximal activity	110 percentage of maximal activity	115 percentage of maximal activity
